Here are results for four compounds from US7510704B2, “Cosmetic compositions” (Unilever Home & Personal Care USA division of Conopco, Inc., priority 2001, dated 2009).

The test system of the experiment is Corynebacterium A sp. NCIMB 40928. Put plainly: In vitro model of fatty acid catabolism by axillary bacteria (culture viability and remaining fatty acid after 24 h). Conditions: for Viability / Fatty acid utilisation: 24 h; for Viability: 35° C.; for Fatty acid utilisation: pentadecanoic acid 2.0 mg/ml. Format: cell-based. The method, then:
This experiment uses the methods of WO 00/01353 to illustrate the much greater efficacy of 4-hydroxy-3-methoxybenzyl alcohol at inhibiting fatty acid catabolism by corynebacteria A, when compared with analogous materials previously disclosed in the aforementioned publication. Data illustrating the sub-lethal aspect of the inhibition are also presented.
An in vitro model system, reproducing fatty acid catabolism by axillary bacteria, was used. To each of several 250 ml baffled shake flasks was added 30 ml semi-synthetic medium (see below), supplemented with fatty acid substrate (2.0 mg/ml pentadecanoic acid) and non-fatty acid substrate (0.5 mg/ml glucose). To each flask (other than the control) was also added one of the indicated test materials, as a 10% (w/v) emulsion in semi-synthetic medium, supplemented with Gum Arabic (5.0 mg/ml). (Emulsions were formed by ultra-homogenisation at 24,000 rpm for about 1 min.) Each of the flasks was inoculated with fresh bacterial biomass (Corynebacterium A sp. NCIMB 40928), pre-grown for 24 h in TSBT (see below), to give starting optical densities (A590) of 1.0-2.0. Following inoculation, the flasks were incubated aerobically at 35° C., with agitation (130 rpm), for 24 hours. After this time, culture viability and remaining fatty acid were determined by methodology as described in […].
Composition of semi-synthetic medium in g/l: KH2PO4 (1.6), (NH4)2HPO4 (5.0), Na2SO4 (0.38), yeast nitrogen base (3.35) (Difco), yeast extract (0.5) (Beta Lab), Tween 80™ (0.2), Triton X-100™ (0.2), and MgCl2.6H2O (0.5).
Composition of TSBT (Tween-supplemented Tryptone soya broth) in g/l: Tryptone soya broth (30.0) (Merck), yeast extract (10.0) (Beta Lab), and Tween 80™ (1.0).
NCIMB 40928 in terms of culture viability and fatty acid utilisation. Various concentrations of active were investigated. It will be noted that for each of the Examples, culture viability was not substantially affected.

Turning to `OCc1ccc(O)cc1` [A, 4-hydroxybenzyl alcohol], the Viability runs as follows: (active conc. 0.1 g/l) 8.69 log10CFU/ml; (active conc. 0.25 g/l) 8.85 log10CFU/ml; (active conc. 0.5 g/l) 8.17 log10CFU/ml. For the same compound, the Fatty acid utilisation turned out to be 100% (active conc. 0.1 g/l), 97% (active conc. 0.25 g/l) and 21% (active conc. 0.5 g/l).

`COc1ccc(CO)cc1O` [B, 3-hydroxy-4-methoxybenzyl alcohol]: the Viability reads like this: (active conc. 1.0 g/l) 8.90 log10CFU/ml; (active conc. 5.0 g/l) 8.99 log10CFU/ml; (active conc. 10.0 g/l) 8.62 log10CFU/ml. Besides, the Fatty acid utilisation came out at 99% (active conc. 1.0 g/l), 86% (active conc. 5.0 g/l) and 29% (active conc. 10.0 g/l).

Turning to `COc1cc(CCO)ccc1O` [C, 4-hydroxy-3-methoxyphenethyl alcohol], the Viability was determined as 8.80 log10CFU/ml (active conc. 1.0 g/l), 8.60 log10CFU/ml (active conc. 5.0 g/l) and 8.09 log10CFU/ml (active conc. 10.0 g/l). Also, the Fatty acid utilisation is, setting by setting: (active conc. 1.0 g/l) 99%; (active conc. 5.0 g/l) 59%; (active conc. 10.0 g/l) 26%.

For `COc1cc(CO)ccc1O` [Example 1, 4-hydroxy-3-methoxybenzyl alcohol], the Viability is reported as 8.91 log10CFU/ml (active conc. 0.1 g/l), 8.88 log10CFU/ml (active conc. 0.25 g/l) and 8.28 log10CFU/ml (active conc. 0.5 g/l). Besides, the Fatty acid utilisation is, setting by setting: (active conc. 0.1 g/l) 65%; (active conc. 0.25 g/l) 40%; (active conc. 0.5 g/l) 20%. Also, the “Reduction of the fatty acid catabolism of corynebacteria A” value (at a concentration of 0.5 mg/ml or less) was “greater than 50%”. Further, for the setting “corynebacteria A”, the “Concentration producing sub-lethal inhibition (greater than 50% inhibition of pentadecanoic acid utilisation without reduction in cell viability, ≦1 log10 CFU/ml)” value is not above 0.25 mg/ml.
